Data: US6790986B1, “Process for the preparation of gabapentin free from inorganic acids anions” (Farchemia S.r.l., priority 2003, dated 2004)
Like-named read-outs stand apart in the source and are kept apart here.

Assays:
[1] = hydroxybenzoate salts of gabapentin in water; precipitates from aqueous solution
From the text: Numerous processes for reducing the chloride ions content in gabapentin exist. […] The proportion of remaining hydrochloride admixtures should thereby not exceed 20 ppm. The same also applies to other mineral acids.”

[2] = storage stability (increase of lactam content on storage); type: physicochemical; settings: gabapentin obtained by the process; after one year at 25° C. and 50% humidity
Procedure: According to the invention, an aqueous solution containing approx. 10 to approx. 18 kg, preferably 13-15 kg, of gabapentin per 100 liters of water, at a temperature ranging from approx. 25 to approx. 60° C., preferably from 30 to 45° C., is added with the hydroxyacid in amounts of 0.95-1.05 mols per mol of gabapentin, the preferred molar ratio between the compounds being 1:1. The resulting suspension is stirred at the same temperature for 5-10 hours, then cooled to approx. 15-25° C. The resulting gabapentin hydroxybenzoate is dried under vacuum at approx. 50° C. The yield is approx. 90% on theoretical, with a assay higher than 99.5%. The resulting salt is suspended in a lower alcohol, preferably absolute ethanol, in amounts of approx. 3-5 liters per kg of salt, at a temperature of 15-25° C., and the suspension is added with an amount of tertiary amine (preferably tributylamine and most preferably N-ethyl-diisopropylamine (“Hünig base”)) in amounts of 1-1.2 mols per mol of gabapentin hydroxybenzoate. After stirring for some hours at the same temperature, the mixture is cooled to 5-10° C., the precipitated gabapentin is filtered or centrifuged, washed with the same alcohol, then stirred with ethanol containing approx. 10% by volume of water.

[3] = stated as known; cited from earlier work

| SMILES | water-solubility [1] | increase of content in lactam on storage [2] | water-solubility [3] |
| --- | --- | --- | --- |
| NCC1(CC(=O)O)CCCCC1.O=C(O)c1ccc(O)cc1 [gabapentin 4-hydroxybenzoate] | so poor | – | – |
| NCC1(CC(=O)O)CCCCC1 [gabapentin, 1-(aminomethyl)-cyclohexaneacetic acid] | – | does not undergo substantial increases | highly water-soluble |
| NCC1(CC(=O)O)CCCCC1.O=C(O)c1ccccc1O [salicylate, gabapentin salicylate] | so poor | – | – |
